How the values were obtained:
[1] = Selectivity ratio of IC50 for human Bcl-2 to IC50 for mouse Mcl-1
[2] = target: T1, Induced myeloid leukemia cell differentiation protein Mcl-1 (Homo sapiens, UniProt Q07820); assay: Inhibition of FITC-BID BH3 peptide binding to recombinant GST-tagged N-terminal/C-terminal truncated Mcl-1 (unknown origin) expressed in Escherichia coli BL21 (DE3) after 5 mins by fluorescence polarization assay
Bcl-2-like protein 1 [3] = target: T2, Bcl-2-like protein 1 (Homo sapiens, UniProt Q07817); assay: Inhibition of FITC-BID BH3 peptide binding to recombinant GST-tagged C-terminal truncated Bcl-xL (unknown origin) expressed in Escherichia coli BL21 (DE3) after 5 mins by fluorescence polarization assay
[4] = target: T3, Apoptosis regulator Bcl-2 (Homo sapiens, UniProt P10415); assay: Inhibition of Bcl-2 (unknown origin) by fluorescence polarization assay
Bcl-2-like protein 1 [5] = target: T2, Bcl-2-like protein 1; assay: Inhibition of Bcl-xL (unknown origin) by fluorescence polarization assay
Homo sapiens [6] = species: Homo sapiens; assay: Selectivity ratio of compound effect for Bcl-2 (unknown origin) to compound effect for Mcl-1 (unknown origin)
Homo sapiens [7] = species: Homo sapiens; assay: Selectivity ratio of compound effect for Bcl-xL (unknown origin) to compound effect for Mcl-1 (unknown origin)
[8] = target: T1, Induced myeloid leukemia cell differentiation protein Mcl-1; assay: Binding affinity to Mcl-1 (unknown origin) by TR-FRET assay
Bcl-2-related protein A1 = target: T4, Bcl-2-related protein A1 (Homo sapiens, UniProt Q16548); assay: Binding affinity to Bcl2A1 (unknown origin)
T4 sequence (Q16548 whole entry): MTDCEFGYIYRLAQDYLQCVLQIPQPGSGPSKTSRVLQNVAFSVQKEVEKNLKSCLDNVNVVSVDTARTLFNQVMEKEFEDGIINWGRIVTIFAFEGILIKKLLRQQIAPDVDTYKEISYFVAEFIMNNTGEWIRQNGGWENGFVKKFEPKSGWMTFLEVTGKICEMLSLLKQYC

Bcl-2-like protein 1 [9] = target: T2, Bcl-2-like protein 1; assay: Inhibition of FITC-labeled Bak-BH3 peptide binding to Bcl-xL (unknown origin) by fluorescence polarization assay
[10] = target: T1, Induced myeloid leukemia cell differentiation protein Mcl-1; assay: Inhibition of FITC-labeled Bak-BH3 peptide binding to Mcl-1 (unknown origin) by fluorescence polarization assay
Bcl-2-like protein 1 [11] = target: T2, Bcl-2-like protein 1; assay: Inhibition of Bak BH3 peptide binding to GST-tagged human Bcl-xL after 3 hrs by Western blotting-based GST pull-down assay
[12] = target: T1, Induced myeloid leukemia cell differentiation protein Mcl-1; assay: Inhibition of Bim BH3 peptide binding to GST-tagged human Mcl-1 after 3 hrs by Western blotting-based GST pull-down assay
[13] = target: T3, Apoptosis regulator Bcl-2; assay: Inhibition of FAM-Bid binding to Bcl-2 (unknown origin) after 30 mins by fluorescence polarization assay
[14] = target: T1, Induced myeloid leukemia cell differentiation protein Mcl-1; assay: Inhibition of FAM-Bid binding to Mcl-1 (unknown origin) after 30 mins by fluorescence polarization assay
[15] = target: T1, Induced myeloid leukemia cell differentiation protein Mcl-1; assay: Inhibition of FITC-labeled Bim BH3 binding to GST-tagged Mcl-1 (unknown origin) preincubated for 2 mins followed by FITC-Bim-BH3 addition measured after 10 mins by fluorescence polarization assay

T2 sequence (Q07817 whole entry, the tested form may be a part): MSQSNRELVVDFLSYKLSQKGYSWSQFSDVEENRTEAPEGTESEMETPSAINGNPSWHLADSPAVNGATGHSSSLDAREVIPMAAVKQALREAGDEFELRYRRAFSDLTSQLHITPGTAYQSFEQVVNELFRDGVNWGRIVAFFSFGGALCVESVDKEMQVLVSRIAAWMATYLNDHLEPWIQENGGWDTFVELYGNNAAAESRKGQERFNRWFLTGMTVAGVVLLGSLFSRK
T1 sequence (Q07820 whole entry, the tested form may be a part): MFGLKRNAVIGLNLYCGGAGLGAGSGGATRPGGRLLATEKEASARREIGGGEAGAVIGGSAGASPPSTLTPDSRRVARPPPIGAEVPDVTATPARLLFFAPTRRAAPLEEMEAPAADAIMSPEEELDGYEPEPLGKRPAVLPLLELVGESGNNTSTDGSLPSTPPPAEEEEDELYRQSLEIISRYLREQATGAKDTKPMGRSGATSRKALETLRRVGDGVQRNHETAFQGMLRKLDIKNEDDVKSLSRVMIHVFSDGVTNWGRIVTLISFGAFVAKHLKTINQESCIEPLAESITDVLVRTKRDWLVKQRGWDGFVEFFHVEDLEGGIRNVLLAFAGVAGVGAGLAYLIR
T3 sequence (P10415 whole entry): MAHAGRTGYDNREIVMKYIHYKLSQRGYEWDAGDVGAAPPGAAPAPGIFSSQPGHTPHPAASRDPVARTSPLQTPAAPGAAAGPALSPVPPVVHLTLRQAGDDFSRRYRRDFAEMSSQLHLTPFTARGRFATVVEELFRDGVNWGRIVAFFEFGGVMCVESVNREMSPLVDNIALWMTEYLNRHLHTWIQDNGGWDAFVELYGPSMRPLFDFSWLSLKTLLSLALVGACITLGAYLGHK

O=C(c1ccccc1O)c1[nH]c(Cl)c(Cl)c1-n1c(C(=O)c2ccccc2O)cc(Cl)c1Cl showed a Ratio IC50 [1] greater than 8.

Cc1cs/c(=N\C2CCCCC2)n1/N=C/c1cc(O)c(O)c(O)c1 gave an IC50 [2] of 4800 nM and an IC50 (Bcl-2-like protein 1 [3]) greater than 50000 nM.

Work on Cc1c(S(C)(=O)=O)c(-c2cc(F)cc(N3CCN(c4ccc(NS(=O)(=O)c5ccc(N[C@H](CCN6CCC(O)CC6)CSc6ccccc6)c(S(=O)(=O)C(F)(F)F)c5)cc4)CC3)c2)c(-c2ccc(Cl)cc2)n1C(C)C yielded a Ki [4] of less than 1 nM, a Ki (Bcl-2-like protein 1 [5]) of less than 1 nM and a Selectivity ratio (Homo sapiens [6]) greater than 1000. It also gave a Selectivity ratio (Homo sapiens [7]) greater than 1000.

With CC1(C)CCC(CN2CCN(c3ccc(C(=O)NS(=O)(=O)c4ccc(NCC5CCOCC5)c([N+](=O)[O-])c4)c(Oc4cnc5[nH]ccc5c4)c3)CC2)=C(c2ccc(Cl)cc2)C1 [VENETOCLAX] the Ki [8] was greater than 444 nM.

Work on CN(C)CC[C@H](CSc1ccccc1)Nc1ccc(S(=O)(=O)NC(=O)c2ccc(N3CCN(Cc4ccccc4-c4ccc(Cl)cc4)CC3)cc2)cc1[N+](=O)[O-] [ABT 737] yielded a Ki (Bcl-2-related protein A1) greater than 20000 nM.

For CC(C)Oc1cc(C(=O)Nc2ccc(C(=O)Nc3ccc(C(=O)O)cc3OC(C)C)nc2OC(C)C)ccc1N, the IC50 (Bcl-2-like protein 1 [9]) was 394 nM and the IC50 [10] was 10000 nM.

For CC(C)Cc1cc(-c2ccc(-c3ccc(CCC(=O)O)cc3CC(C)C)cc2Cc2ccccc2)ccc1OCC(=O)O, the IC50 (Bcl-2-like protein 1 [11]) was 1500 nM and the IC50 [12] was 4900 nM.

Work on N#CC1=C2C(=NC1=O)c1cccc3c(N4CCSCC4)ccc2c13 yielded a Kd [13] of 310 nM and a Kd [14] of 58 nM.

Work on CC1=C(C2=C(C)C(=O)c3c(cc(O)c(O)c3Cc3ccccc3)C2=O)C(=O)c2cc(O)c(O)c(Cc3ccccc3)c2C1=O yielded an IC50 [15] of 25 nM.

— ChEMBL document CHEMBL4052581, “Expanding the Cancer Arsenal with Targeted Therapies: Disarmament of the Antiapoptotic Bcl-2 Proteins by Small Molecules” (J Med Chem, 2017)
